Source: ChEMBL document CHEMBL4480391, “Discovery and synthesis of sulfur-containing 6-substituted 5,8-dimethoxy-1,4-naphthoquinone oxime derivatives as new and potential anti-MDR cancer agents” (Eur J Med Chem, 2019)

Columns and labels:
[1] = Selectivity index, ratio of IC50 for human HSF cells to IC50 for human HCT15 cells; type: toxicity; details: HSF cells versus HCT15 cells, read-out: Ratio IC50
A549 = test: Cytotoxicity against human A549 cells after 72 hrs by MTT assay; type: functional, cell-based; details: A549, 72 h
[2] = Cytotoxicity against human HSF cells after 72 hrs by MTT assay; type: cell-based
MGC-803 = test: Cytotoxicity against human MGC803 cells after 72 hrs by MTT assay; type: functional, cell-based; details: MGC-803, 72 h
Bel7402/5-FU = test: Cytotoxicity against human Bel7402/5-FU cells after 72 hrs by MTT assay; type: functional, cell-based
K562 = test: Cytotoxicity against human K562 cells after 72 hrs by MTT assay; type: functional, cell-based; details: K562, 72 h
A549/TR = test: Cytotoxicity against human A549/TAX cells after 72 hrs by MTT assay; type: functional, cell-based
[3] = Selectivity ratio of IC50 for human […] cells to IC50 for human Bel7402/5-FU cells; type: functional
[4] = Selectivity ratio of IC50 for human MCF7 cells to IC50 for human MCF7/ADR cells; type: functional
[5] = Cytotoxicity against human […] cells after 72 hrs by MTT assay; type: functional, cell-based
MCF7 = test: Cytotoxicity against human MCF7 cells after 72 hrs by MTT assay; type: functional, cell-based; details: MCF7, 72 h
[6] = Selectivity ratio of IC50 for human A549 cells to IC50 for human A549/TAX cells; type: functional
NCI/ADR-RES = test: Cytotoxicity against human MCF7/ADR cells after 72 hrs by MTT assay; type: functional, cell-based
HCT-15 = test: Cytotoxicity against human HCT15 cells after 72 hrs by MTT assay; type: functional, cell-based; details: HCT-15, 72 h

SMILES	selectivity ratio [1]	IC50 (A549) [nM]	IC50 [2] [nM]	IC50 (MGC-803) [nM]	IC50 (Bel7402/5-FU) [nM]	IC50 (K562) [nM]	IC50 (A549/TR) [nM]	Ratio IC50 [3]	Ratio IC50 [4]	IC50 [5] [nM]	IC50 (MCF7) [nM]	Ratio IC50 [6]	IC50 (NCI/ADR-RES) [nM]	IC50 (HCT-15) [nM]
CCCCCCCCC(SC(=O)c1ccc(OC)c(OC)c1)c1cc(OC)c2c(c1OC)/C(=N/O)C=C/C2=N\O (stereo unspecified)	> 109	10400	> 50000	950	570	750	960	1.3	4.97	740	13100	10.9	2630	460
CCCCCCCC(SCCC(C)C)c1cc(OC)c2c(c1OC)/C(=N/O)C=C/C2=N\O (stereo unspecified)	> 61	24300	> 50000	1350	2920	1000	4520	1.53	2.09	4470	38600	5.38	18500	820
CCCCCCCC(SC(=O)c1cc(OC)c(OC)c(OC)c1)c1cc(OC)c2c(c1OC)/C(=N/O)C=C/C2=N\O (stereo unspecified)	> 51	17900	> 50000	1210	1560	850	2250	1.9	2.7	2960	20700	7.96	7880	980
CCCCCCCCC(SCCC(C)C)c1cc(OC)c2c(c1OC)/C(=N/O)C=C/C2=N\O (stereo unspecified)	> 92.6	18900	> 50000	1090	730	760	1180	3.16	2.41	2310	33600	16	14000	540
